Assay results reported in patent US20130143929A1, “FUNGICIDAL IMIDAZOLES” (EI DU PONT DE NEMOURS AND COMPANY, priority 2010, published 2013).
Marks after values point to notes of the source that are not given here.

Tests used:
Type in all cases: in vivo
[1] = test system: Puccinia recondite f. sp. tritici (the causal agent of wheat leaf rust); assay: Test A: wheat leaf rust, preventive spray on wheat seedlings, visual disease rating; details: wheat leaf rust, preventive spray on wheat seedlings
In short: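 This was a preventive test: Puccinia recondite f. sp. tritici inoculum was applied one day after compound spray to run-off. Test suspensions were made in 50/50 acetone/water with 250 ppm surfactant, at 200 ppm (800 g/ha equivalent) or 40 ppm. Visual ratings of % disease control relative to controls were made after 24 h of saturated humidity and 7 growth-chamber days, all at 20° C.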

[2] = test system: Septoria tritici (the causal agent of wheat leaf blotch); assay: Test B: wheat leaf blotch, preventive spray on wheat seedlings, visual disease rating; details: wheat leaf blotch, preventive spray on wheat seedlings
In short: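 Preventive test: Septoria tritici spores applied one day after run-off spraying of seedlings (200 ppm equals 800 g/ha; some tests 40 ppm). After 48 h at 24 °C saturated atmosphere and 19 days at 20 °C, disease scored visually as % control relative to untreated plants.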

[3] = test system: Botrytis cinerea (the causal agent of tomato Botrytis); assay: Test C: tomato Botrytis, preventive spray on tomato seedlings, visual disease rating; details: tomato Botrytis, preventive spray on tomato seedlings
In short: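 Preventive test: B. cinerea spore inoculation one day after tomato seedlings were sprayed to run-off with compound suspended in 50/50 acetone–water plus 250 ppm surfactant. Plants held 48 h at 20° C in saturated air, then 3 days at 24° C; visual ratings scored 100 (full control) to 0 versus controls; some entries used 40 ppm.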

[4] = test system: Blumeria graminis f. sp. tritici (also known as Erysiphe graminis f. sp. tritici, the causal agent of wheat powdery mildew); assay: Test D: wheat powdery mildew, preventive spray on wheat seedlings, visual disease rating; details: wheat powdery mildew, preventive spray on wheat seedlings
In short: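 Preventive test: seedlings sprayed to run-off and inoculated with powdery mildew spores one day later. Suspensions were made in 50/50 acetone/water with 250 ppm Trem 014 surfactant (200 ppm equals 800 g/ha). Visual ratings after 8 days at 20 °C give percent disease control versus controls.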

[5] = no asterisk (standard test suspension concentration, not 40 ppm)
[6] = asterisk: 40 ppm test suspension

Row | SMILES | Test A rating (100 = 100% disease control, 0 = no disease control relative to the controls) [1, 5] [%] | Test B rating (100 = 100% disease control, 0 = no disease control relative to the controls) [2, 5] [%] | Test C rating (100 = 100% disease control, 0 = no disease control relative to the controls) [3, 5] [%] | Test D rating (100 = 100% disease control, 0 = no disease control relative to the controls) [4, 5] [%] | Test A rating (100 = 100% disease control, 0 = no disease control relative to the controls) [1, 6] | Test B rating (100 = 100% disease control, 0 = no disease control relative to the controls) [2, 6] | Test C rating (100 = 100% disease control, 0 = no disease control relative to the controls) [3, 6] | Test D rating (100 = 100% disease control, 0 = no disease control relative to the controls) [4, 6]
1 | OC(c1ccc(Cl)cc1)c1c(Cl)nc(Cl)n1-c1ccc(Cl)cc1Cl (single isomer, unassigned) [compound 87] | 91 | 100 | 60 | 48 | – | – | – | –
2 | OC(c1ccc(F)cc1Cl)c1c(Cl)ncn1-c1c(F)cccc1F (stereo not drawn) [Compound 1, 4-chloro-α-(2-chloro-4-fluorophenyl)-1-(2,6-difluorophenyl)-1H-imidazole-5-methanol] | 100 | 100 | 99 | 99 | – | – | – | –
3 | OC(c1ccc(F)cc1F)c1c(Cl)ncn1-c1ccc(F)cc1Cl (stereo not drawn) [Compound 2, 4-chloro-1-(2-chloro-4-fluorophenyl)-α-(2,4-difluorophenyl)-1H-imidazole-5-methanol] | 100 | 100 | 100 | 81 | – | – | – | –
4 | Cc1ncc(C(O)c2ccc(F)cc2Cl)n1-c1c(F)cc(F)cc1F (stereo not drawn) [Compound 167, α-(2-chloro-4-fluorophenyl)-2-methyl-1-(2,4,6-trifluorophenyl)-1H-imidazole-5-methanol] | 100 | 100 | 33 | 0 | – | – | – | –
5 | Cc1nc(Br)c(C(O)c2ccc(F)cc2Cl)n1-c1c(F)cc(F)cc1F (stereo not drawn) [Compound 168, 4-bromo-α-(2-chloro-4-fluorophenyl)-2-methyl-1-(2,4,6-trifluorophenyl)-1H-imidazole-5-methanol] | – | – | – | – | 100* % | 100* % | 99* % | 56* %
6 | COc1ccc(C(O)c2c(Br)ncn2-c2c(F)cccc2F)c(Cl)c1 (stereo not drawn) [Compound 274, 4-bromo-1-(2,6-difluorophenyl)-α-(2-chloro-4-methoxyphenyl)-1H-imidazole-5-methanol] | 100 | 97 | 0 | 64 | – | – | – | –
7 | COc1ccc(C(O)c2c(Br)nc(Cl)n2-c2c(F)cccc2F)c(Cl)c1 (stereo not drawn) [Compound 287, 4-bromo-2-chloro-α-(2-chloro-4-methoxyphenyl)-1-(2,6-difluorophenyl)-1H-imidazole-5-methanol] | – | – | – | – | 100* % | 100* % | 100* % | 97* %
8 | OC(c1ccc(F)cc1Cl)c1c(Cl)nc(Cl)n1-c1c(F)cc(F)cc1Cl (stereo not shown) [compound 42] | 100 | 100 | 100 | 100 | – | – | – | –
9 | Cc1cc(F)ccc1C(O)c1c(Cl)nc(Cl)n1-c1c(F)cccc1F (stereo not shown) [compound 43] | 100 | 100 | 100 | 100 | – | – | – | –
10 | OC(c1ccc(Cl)cc1)c1c(Cl)nc(Cl)n1-c1c(F)cc(F)cc1Br (stereo not shown) [compound 44] | 99 | 100 | 99 | 88 | – | – | – | –
11 | Cc1nc(Cl)n(-c2ccc(F)cc2Cl)c1C(O)c1c(F)cccc1F (stereo not shown) [compound 46] | 100 | 100 | 100 | 100 | – | – | – | –
12 | OC(c1c(F)cc(F)cc1F)c1c(Cl)nc(Cl)n1-c1ccc(F)cc1Cl (stereo not shown) [compound 49] | 100 | 100 | 100 | 100 | – | – | – | –
13 | Cc1ccc(C(O)c2c(Br)nc(C)n2-c2c(F)cccc2F)c(F)c1 (stereo not shown) [compound 52] | – | – | – | – | 99* % | 100* % | 37* % | 35-* %
14 | COc1ccc(C(O)c2c(Br)nc(C)n2-c2c(F)cccc2F)c(F)c1 (stereo not shown) [compound 53] | – | – | – | – | 100* % | 100* % | 99* % | 43* %
15 | Cc1nc(Cl)c(C(O)c2ccc(Cl)cc2F)n1-c1c(F)cccc1F (stereo not shown) [compound 54] | – | – | – | – | 98* % | 100* % | 80* % | 69* %
16 | Cc1ccc(C(O)c2c(Cl)nc(C)n2-c2c(F)cccc2F)c(F)c1 (stereo not shown) [compound 55] | – | – | – | – | 100* % | 100* % | 98* % | 98* %
17 | COc1ccc(C(O)c2c(Cl)nc(C)n2-c2c(F)cccc2F)c(F)c1 (stereo not shown) [compound 56] | – | – | – | – | 100* % | 100* % | 100* % | 13* %
18 | Cc1ncc(C(O)c2ccc(Cl)cc2)n1-c1ccc(F)cc1Cl (stereo not shown) [compound 57] | 96 | 100 | 34 | 0 | – | – | – | –
19 | Cc1nc(Cl)c(C(O)c2ccc(F)cc2F)n1-c1ccc(F)cc1Cl (stereo not shown) [compound 58] | 100 | 100 | 100 | 72 | – | – | – | –
